Measurements taken from PubChem BioAssay (NCI).
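Abbreviation: GI50, concentration required for 50% inhibition of growth. TGI: total growth inhibition.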

Assays:
Assay in all cases: NCI-60 cell line screen, 384-well format
HOP-92 NSCLC = system: HOP-92 NSCLC
RXF 393 renal = system: RXF 393 renal
COLO 205 colon = system: COLO 205 colon
SNB-19 CNS = system: SNB-19 CNS
A549 NSCLC = system: A549 NSCLC
OVCAR-8 ovarian = system: OVCAR-8 ovarian
HCT-15 colon = system: HCT-15 colon
SK-MEL-28 melanoma = system: SK-MEL-28 melanoma
OVCAR-4 ovarian = system: OVCAR-4 ovarian
SK-OV-3 ovarian = system: SK-OV-3 ovarian
NCI-H322M lung = system: NCI-H322M lung
CAKI-1 renal = system: CAKI-1 renal
LOX IMVI melanoma = system: LOX IMVI melanoma
UACC-62 melanoma = system: UACC-62 melanoma
SW-620 colon = system: SW-620 colon
NCI-H226 lung = system: NCI-H226 lung
NCI-H460 NSCLC = system: NCI-H460 NSCLC
M14 melanoma = system: M14 melanoma
IGROV1 ovarian = system: IGROV1 ovarian
MDA-MB-468 breast = system: MDA-MB-468 breast
HT29 colon = system: HT29 colon
SK-MEL-5 melanoma = system: SK-MEL-5 melanoma
DU-145 prostate = system: DU-145 prostate
SN12C renal = system: SN12C renal
OVCAR-5 ovarian = system: OVCAR-5 ovarian
SR leukemia = system: SR leukemia
HCT-116 colon = system: HCT-116 colon
PC-3 prostate = system: PC-3 prostate
MOLT-4 leukemia = system: MOLT-4 leukemia
UO-31 renal = system: UO-31 renal
CCRF-CEM leukemia = system: CCRF-CEM leukemia
UACC-257 melanoma = system: UACC-257 melanoma
TK-10 renal = system: TK-10 renal
RPMI-8226 leukemia = system: RPMI-8226 leukemia
SF-295 CNS = system: SF-295 CNS
SF-268 CNS = system: SF-268 CNS
SK-MEL-2 melanoma = system: SK-MEL-2 melanoma
U251 glioblastoma = system: U251 glioblastoma
KM12 colon = system: KM12 colon
K-562 leukemia = system: K-562 leukemia
T-47D breast = system: T-47D breast
A498 renal = system: A498 renal
NCI/ADR-RES ovarian = system: NCI/ADR-RES ovarian
MALME-3M melanoma = system: MALME-3M melanoma
NCI-H522 lung = system: NCI-H522 lung
SF-539 CNS = system: SF-539 CNS
HCC-2998 colon = system: HCC-2998 colon
HOP-62 NSCLC = system: HOP-62 NSCLC
OVCAR-3 ovarian = system: OVCAR-3 ovarian
MDA-MB-435 melanoma = system: MDA-MB-435 melanoma
NCI-H23 lung = system: NCI-H23 lung
HL-60(TB) leukemia = system: HL-60(TB) leukemia
786-0 renal = system: 786-0 renal
BT-549 breast = system: BT-549 breast
ACHN renal = system: ACHN renal
MDA-MB-231 breast = system: MDA-MB-231 breast
MCF7 breast = system: MCF7 breast

For `COc1ccc(-c2ccc3ncc4c(c3c2)n(-c2ccc(N3CCNCC3)c(C(F)(F)F)c2)c(=O)n4C)cn1`, the GI50 (HOP-92 NSCLC) was < 10 nM, the TGI (HOP-92 NSCLC) was 19.1 nM and the GI50 (RXF 393 renal) was < 10 nM. For the same compound, the TGI (RXF 393 renal) was 19.3 nM, the GI50 (COLO 205 colon) was < 10 nM and the TGI (COLO 205 colon) was 21.7 nM. The GI50 (SNB-19 CNS) was < 10 nM, the TGI (SNB-19 CNS) was 192 nM and the GI50 (A549 NSCLC) was < 10 nM. The TGI (A549 NSCLC) was 25.4 nM, the GI50 (OVCAR-8 ovarian) was < 10 nM and the TGI (OVCAR-8 ovarian) was 124 nM. For the same compound, the GI50 (HCT-15 colon) was < 10 nM, the TGI (HCT-15 colon) was 129 nM and the GI50 (SK-MEL-28 melanoma) was < 10 nM. For the same compound, the TGI (SK-MEL-28 melanoma) was 42 nM, the GI50 (OVCAR-4 ovarian) was < 10 nM and the TGI (OVCAR-4 ovarian) was < 10 nM. The GI50 (SK-OV-3 ovarian) was < 10 nM, the TGI (SK-OV-3 ovarian) was < 10 nM and the GI50 (NCI-H322M lung) was < 10 nM. The TGI (NCI-H322M lung) was 109 nM, the GI50 (CAKI-1 renal) was < 10 nM and the TGI (CAKI-1 renal) was 14.9 nM. For the same compound, the GI50 (LOX IMVI melanoma) was < 10 nM, the TGI (LOX IMVI melanoma) was 49 nM and the GI50 (UACC-62 melanoma) was < 10 nM. The TGI (UACC-62 melanoma) was 28.3 nM, the GI50 (SW-620 colon) was < 10 nM and the TGI (SW-620 colon) was 122 nM. For the same compound, the GI50 (NCI-H226 lung) was < 10 nM, the TGI (NCI-H226 lung) was 32.5 nM and the GI50 (NCI-H460 NSCLC) was < 10 nM. The TGI (NCI-H460 NSCLC) was 83.3 nM, the GI50 (M14 melanoma) was < 10 nM and the TGI (M14 melanoma) was 64.9 nM. The GI50 (IGROV1 ovarian) was < 10 nM, the TGI (IGROV1 ovarian) was < 10 nM and the GI50 (MDA-MB-468 breast) was < 10 nM. The TGI (MDA-MB-468 breast) was < 10 nM, the GI50 (HT29 colon) was < 10 nM and the TGI (HT29 colon) was 135 nM. For the same compound, the GI50 (SK-MEL-5 melanoma) was < 10 nM, the TGI (SK-MEL-5 melanoma) was 13.8 nM and the GI50 (DU-145 prostate) was < 10 nM. For the same compound, the TGI (DU-145 prostate) was 128 nM, the GI50 (SN12C renal) was < 10 nM and the TGI (SN12C renal) was 154 nM. For the same compound, the GI50 (OVCAR-5 ovarian) was < 10 nM, the TGI (OVCAR-5 ovarian) was 105 nM and the GI50 (SR leukemia) was < 10 nM. The TGI (SR leukemia) was < 10 nM, the GI50 (HCT-116 colon) was < 10 nM and the TGI (HCT-116 colon) was 130 nM. For the same compound, the GI50 (PC-3 prostate) was < 10 nM, the TGI (PC-3 prostate) was 106 nM and the GI50 (MOLT-4 leukemia) was < 10 nM. For the same compound, the TGI (MOLT-4 leukemia) was < 10 nM, the GI50 (UO-31 renal) was < 10 nM and the TGI (UO-31 renal) was 16.7 nM. For the same compound, the GI50 (CCRF-CEM leukemia) was < 10 nM, the TGI (CCRF-CEM leukemia) was 13.6 nM and the GI50 (UACC-257 melanoma) was 11.7 nM. The TGI (UACC-257 melanoma) was 51.5 nM, the GI50 (TK-10 renal) was < 10 nM and the TGI (TK-10 renal) was 50.6 nM. For the same compound, the GI50 (RPMI-8226 leukemia) was < 10 nM, the TGI (RPMI-8226 leukemia) was < 10 nM and the GI50 (SF-295 CNS) was < 10 nM. The TGI (SF-295 CNS) was 10.5 nM, the GI50 (SF-268 CNS) was < 10 nM and the TGI (SF-268 CNS) was 131 nM. The GI50 (SK-MEL-2 melanoma) was < 10 nM, the TGI (SK-MEL-2 melanoma) was 36.5 nM and the GI50 (U251 glioblastoma) was < 10 nM. For the same compound, the TGI (U251 glioblastoma) was 134 nM, the GI50 (KM12 colon) was < 10 nM and the TGI (KM12 colon) was 141 nM. The GI50 (K-562 leukemia) was < 10 nM, the TGI (K-562 leukemia) was 124 nM and the GI50 (T-47D breast) was < 10 nM. The TGI (T-47D breast) was < 10 nM, the GI50 (A498 renal) was < 10 nM and the TGI (A498 renal) was < 10 nM. For the same compound, the GI50 (NCI/ADR-RES ovarian) was 107 nM, the TGI (NCI/ADR-RES ovarian) was 226 nM and the GI50 (MALME-3M melanoma) was < 10 nM. For the same compound, the TGI (MALME-3M melanoma) was < 10 nM, the GI50 (NCI-H522 lung) was < 10 nM and the TGI (NCI-H522 lung) was 50.9 nM. The GI50 (SF-539 CNS) was < 10 nM, the TGI (SF-539 CNS) was 26.3 nM and the GI50 (HCC-2998 colon) was < 10 nM. For the same compound, the TGI (HCC-2998 colon) was 103 nM, the GI50 (HOP-62 NSCLC) was < 10 nM and the TGI (HOP-62 NSCLC) was 21.6 nM. For the same compound, the GI50 (OVCAR-3 ovarian) was < 10 nM, the TGI (OVCAR-3 ovarian) was 96 nM and the GI50 (MDA-MB-435 melanoma) was < 10 nM. It also gave a TGI (MDA-MB-435 melanoma) of 34 nM, a GI50 (NCI-H23 lung) of 11.4 nM and a TGI (NCI-H23 lung) of 82 nM. For the same compound, the GI50 (HL-60(TB) leukemia) was 15.5 nM, the TGI (HL-60(TB) leukemia) was 111 nM and the GI50 ([…]-0 renal) was < 10 nM. The TGI (786-0 renal) was 151 nM, the GI50 (BT-549 breast) was < 10 nM and the TGI (BT-549 breast) was 17.2 nM. For the same compound, the GI50 (ACHN renal) was < 10 nM, the TGI (ACHN renal) was 43.8 nM and the GI50 (MDA-MB-231 breast) was < 10 nM. For the same compound, the TGI (MDA-MB-231 breast) was 158 nM, the GI50 (MCF7 breast) was < 10 nM and the TGI (MCF7 breast) was 120 nM.
